Measured values published in patent US20130023645A1 (priority 2006, published 2013).
Several values for one entry are separate records, joined by “and”; a condition that tells them apart may be missing. Equal entries are not always repeated.

Biological target: T1, neuronal-type nicotinic receptors (Bos taurus, UniProt Q07263+Q8SPU6)
T1 construct: monolayer cultures of bovine adrenal chromaffin cells; endogenous in cells; host or cells: bovine adrenal chromaffin cells (primary monolayer cultures)
Format: cell-based, bovine

T1 sequence (Q07263 22-495): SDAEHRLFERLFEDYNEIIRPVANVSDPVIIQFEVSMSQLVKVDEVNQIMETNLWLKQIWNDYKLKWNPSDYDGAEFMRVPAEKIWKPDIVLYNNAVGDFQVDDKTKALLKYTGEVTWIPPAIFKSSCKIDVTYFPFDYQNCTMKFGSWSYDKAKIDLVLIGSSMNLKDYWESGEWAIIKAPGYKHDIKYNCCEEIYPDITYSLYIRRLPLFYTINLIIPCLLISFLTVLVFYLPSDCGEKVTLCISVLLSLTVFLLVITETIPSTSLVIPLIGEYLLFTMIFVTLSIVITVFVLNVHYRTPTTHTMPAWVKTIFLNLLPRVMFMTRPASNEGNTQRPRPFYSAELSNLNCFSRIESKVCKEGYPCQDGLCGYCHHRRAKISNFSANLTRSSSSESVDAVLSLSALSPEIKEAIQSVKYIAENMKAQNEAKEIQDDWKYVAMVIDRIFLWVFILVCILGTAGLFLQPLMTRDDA
T1 sequence (Q8SPU6 20-496): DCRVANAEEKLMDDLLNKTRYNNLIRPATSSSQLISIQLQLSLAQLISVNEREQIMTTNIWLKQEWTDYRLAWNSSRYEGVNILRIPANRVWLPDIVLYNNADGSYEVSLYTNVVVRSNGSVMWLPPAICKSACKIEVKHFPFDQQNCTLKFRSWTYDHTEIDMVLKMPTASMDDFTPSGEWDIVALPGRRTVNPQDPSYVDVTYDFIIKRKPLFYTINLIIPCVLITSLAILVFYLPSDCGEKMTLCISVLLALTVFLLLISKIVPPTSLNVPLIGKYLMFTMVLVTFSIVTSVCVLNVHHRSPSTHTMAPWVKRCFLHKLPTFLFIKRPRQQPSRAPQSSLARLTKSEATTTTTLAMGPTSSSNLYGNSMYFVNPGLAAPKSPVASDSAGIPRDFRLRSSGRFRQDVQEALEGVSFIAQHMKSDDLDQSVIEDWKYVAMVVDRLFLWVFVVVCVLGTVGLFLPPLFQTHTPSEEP

CN1CCCC1c1cccnc1 (centres unmarked) [NICOTINE, nicotine, reference compound]
Adrenaline Release, mean: 4.46%
Adrenaline Release, single determinations (1st-4th): 4.31% and 4.52% and 4.48%
Noradrenaline Release, mean: 6.85%
Noradrenaline Release, single determinations (1st-4th): 6.62% and 6.89% and 6.99%
noradrenaline released, basal release (0.72%) subtracted: 6.13%
